Assay results published in ChEMBL document CHEMBL1208707, “T-type calcium channel blockers: spiro-piperidine azetidines and azetidinones-optimization, design and synthesis” (Bioorg Med Chem Lett, 2010).
pIC50: −log10 of the molar value. Active and inactive are the calls of the source. The rule behind the calls is not given here.

Legend:
[1] = organism: Homo sapiens; experiment: Protein binding in human plasma; settings: read-out: PPB (converted)
[2] = system: Plasma; experiment: (§1) Protein binding in rat plasma; assay type: ADME, cell-free
[3] = target: T1, Voltage-dependent T-type calcium channel subunit alpha-1H (Homo sapiens, UniProt O95180); experiment: Inhibition of human CaV3.2 expressed in HEK293 cells at -100 mV membrane potential by Ionworks HT assay; assay type: cell-based
T1 sequence (O95180 whole entry): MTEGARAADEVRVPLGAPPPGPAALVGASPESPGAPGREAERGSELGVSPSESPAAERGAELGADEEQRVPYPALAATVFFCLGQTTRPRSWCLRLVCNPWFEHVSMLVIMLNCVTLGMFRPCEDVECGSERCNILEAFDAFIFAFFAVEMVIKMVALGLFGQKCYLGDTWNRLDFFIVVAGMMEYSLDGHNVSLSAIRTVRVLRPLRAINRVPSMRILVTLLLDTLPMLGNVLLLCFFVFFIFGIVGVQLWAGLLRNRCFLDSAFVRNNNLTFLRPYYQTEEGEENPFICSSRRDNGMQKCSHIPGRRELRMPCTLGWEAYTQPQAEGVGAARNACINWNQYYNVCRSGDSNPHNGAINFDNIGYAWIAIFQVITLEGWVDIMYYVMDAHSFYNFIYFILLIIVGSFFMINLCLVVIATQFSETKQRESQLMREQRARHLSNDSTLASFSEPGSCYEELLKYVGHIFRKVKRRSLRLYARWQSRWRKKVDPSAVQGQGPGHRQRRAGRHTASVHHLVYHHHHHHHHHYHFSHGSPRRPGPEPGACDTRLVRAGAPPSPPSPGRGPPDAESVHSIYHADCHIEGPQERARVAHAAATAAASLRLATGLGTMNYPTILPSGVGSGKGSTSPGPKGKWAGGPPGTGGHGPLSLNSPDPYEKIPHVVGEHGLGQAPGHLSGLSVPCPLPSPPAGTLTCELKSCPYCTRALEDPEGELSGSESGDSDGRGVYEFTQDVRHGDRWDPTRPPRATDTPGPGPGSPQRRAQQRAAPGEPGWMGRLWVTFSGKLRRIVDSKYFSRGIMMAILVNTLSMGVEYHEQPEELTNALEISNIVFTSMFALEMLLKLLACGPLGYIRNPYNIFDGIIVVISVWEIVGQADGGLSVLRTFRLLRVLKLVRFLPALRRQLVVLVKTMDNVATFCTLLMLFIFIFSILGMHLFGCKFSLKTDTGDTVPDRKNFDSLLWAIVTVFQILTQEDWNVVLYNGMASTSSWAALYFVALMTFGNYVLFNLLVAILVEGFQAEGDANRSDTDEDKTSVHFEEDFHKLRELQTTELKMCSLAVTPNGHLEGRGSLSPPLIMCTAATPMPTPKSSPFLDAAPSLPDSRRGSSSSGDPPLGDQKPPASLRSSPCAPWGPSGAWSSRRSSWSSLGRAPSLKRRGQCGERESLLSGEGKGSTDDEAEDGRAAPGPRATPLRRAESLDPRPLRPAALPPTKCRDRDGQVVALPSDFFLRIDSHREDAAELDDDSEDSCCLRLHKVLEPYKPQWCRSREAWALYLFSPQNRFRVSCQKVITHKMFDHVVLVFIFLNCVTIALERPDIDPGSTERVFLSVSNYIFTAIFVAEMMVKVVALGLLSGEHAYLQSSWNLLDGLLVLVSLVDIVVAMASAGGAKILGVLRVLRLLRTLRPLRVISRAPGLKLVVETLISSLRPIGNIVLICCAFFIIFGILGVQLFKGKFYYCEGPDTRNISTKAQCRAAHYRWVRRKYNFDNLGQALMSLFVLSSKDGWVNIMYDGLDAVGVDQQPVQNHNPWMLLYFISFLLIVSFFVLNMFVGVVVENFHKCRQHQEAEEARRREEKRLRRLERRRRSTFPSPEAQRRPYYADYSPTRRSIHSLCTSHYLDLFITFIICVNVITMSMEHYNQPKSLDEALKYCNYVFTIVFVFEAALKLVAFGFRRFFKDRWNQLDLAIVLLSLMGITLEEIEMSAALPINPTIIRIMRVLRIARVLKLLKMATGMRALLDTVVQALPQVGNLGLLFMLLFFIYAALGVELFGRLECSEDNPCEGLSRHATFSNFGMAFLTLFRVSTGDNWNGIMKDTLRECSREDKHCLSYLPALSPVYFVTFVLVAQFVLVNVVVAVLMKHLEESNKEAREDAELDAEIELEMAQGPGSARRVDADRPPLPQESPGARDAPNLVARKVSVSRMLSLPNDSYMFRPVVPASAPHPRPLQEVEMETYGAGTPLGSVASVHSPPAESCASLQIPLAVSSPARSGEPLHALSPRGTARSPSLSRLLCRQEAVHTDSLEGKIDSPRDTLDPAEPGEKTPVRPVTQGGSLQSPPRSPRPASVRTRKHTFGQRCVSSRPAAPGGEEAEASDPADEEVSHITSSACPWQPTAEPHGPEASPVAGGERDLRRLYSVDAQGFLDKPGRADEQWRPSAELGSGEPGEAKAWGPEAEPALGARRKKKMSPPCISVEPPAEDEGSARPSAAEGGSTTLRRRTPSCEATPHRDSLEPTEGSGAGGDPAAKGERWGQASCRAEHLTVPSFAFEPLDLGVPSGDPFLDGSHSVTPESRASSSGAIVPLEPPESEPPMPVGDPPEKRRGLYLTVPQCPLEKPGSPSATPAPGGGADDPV

[4] = Permeability across human Caco-2 cells; assay type: ADME, cell-based; settings: read-out: permeability
[5] = target: T2, Cytochrome P450 2D6 (Homo sapiens, UniProt P10635); experiment: Inhibition of CYP2D6 preincubated with compound; assay type: ADME
T2 sequence (P10635 whole entry): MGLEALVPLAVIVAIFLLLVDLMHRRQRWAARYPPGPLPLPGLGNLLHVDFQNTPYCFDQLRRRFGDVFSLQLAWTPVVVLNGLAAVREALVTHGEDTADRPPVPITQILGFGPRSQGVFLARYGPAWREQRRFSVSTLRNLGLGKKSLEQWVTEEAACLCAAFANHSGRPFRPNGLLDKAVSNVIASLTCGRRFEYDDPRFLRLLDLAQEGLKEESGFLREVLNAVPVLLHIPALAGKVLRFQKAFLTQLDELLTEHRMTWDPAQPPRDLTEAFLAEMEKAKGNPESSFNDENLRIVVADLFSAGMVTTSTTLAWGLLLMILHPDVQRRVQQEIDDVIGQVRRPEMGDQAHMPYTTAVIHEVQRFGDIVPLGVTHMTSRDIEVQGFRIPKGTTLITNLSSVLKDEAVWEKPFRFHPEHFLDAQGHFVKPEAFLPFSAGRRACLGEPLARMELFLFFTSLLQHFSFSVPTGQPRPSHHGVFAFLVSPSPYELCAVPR

[6] = target: Cytochrome P450 3A4 (Homo sapiens, UniProt P08684); experiment: Inhibition of CYP3A4 coincubated with compound; assay type: ADME; settings: read-out: INH
Cytochrome P450 3A4, sequence (P08684 whole entry): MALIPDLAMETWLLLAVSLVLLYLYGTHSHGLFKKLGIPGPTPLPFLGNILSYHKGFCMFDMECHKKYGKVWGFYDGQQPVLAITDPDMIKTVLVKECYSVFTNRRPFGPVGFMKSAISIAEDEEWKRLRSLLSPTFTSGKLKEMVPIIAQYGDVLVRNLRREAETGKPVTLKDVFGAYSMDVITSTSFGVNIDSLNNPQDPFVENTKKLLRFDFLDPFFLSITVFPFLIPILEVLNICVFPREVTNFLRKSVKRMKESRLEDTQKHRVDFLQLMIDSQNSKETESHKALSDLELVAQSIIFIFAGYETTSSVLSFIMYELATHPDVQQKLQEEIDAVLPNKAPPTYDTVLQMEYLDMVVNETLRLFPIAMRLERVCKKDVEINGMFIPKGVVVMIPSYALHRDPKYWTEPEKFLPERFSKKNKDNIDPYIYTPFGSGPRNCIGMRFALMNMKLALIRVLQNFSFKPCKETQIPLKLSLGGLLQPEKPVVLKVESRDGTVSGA

[7] = target: T2, Cytochrome P450 2D6; experiment: Inhibition of CYP2D6 coincubated with compound; assay type: ADME
[8] = target: T3, Cytochrome P450 2C9 (Homo sapiens, UniProt P11712); experiment: Inhibition of CYP2C9 coincubated with compound; assay type: ADME; settings: read-out: INH
T3 sequence (P11712 whole entry): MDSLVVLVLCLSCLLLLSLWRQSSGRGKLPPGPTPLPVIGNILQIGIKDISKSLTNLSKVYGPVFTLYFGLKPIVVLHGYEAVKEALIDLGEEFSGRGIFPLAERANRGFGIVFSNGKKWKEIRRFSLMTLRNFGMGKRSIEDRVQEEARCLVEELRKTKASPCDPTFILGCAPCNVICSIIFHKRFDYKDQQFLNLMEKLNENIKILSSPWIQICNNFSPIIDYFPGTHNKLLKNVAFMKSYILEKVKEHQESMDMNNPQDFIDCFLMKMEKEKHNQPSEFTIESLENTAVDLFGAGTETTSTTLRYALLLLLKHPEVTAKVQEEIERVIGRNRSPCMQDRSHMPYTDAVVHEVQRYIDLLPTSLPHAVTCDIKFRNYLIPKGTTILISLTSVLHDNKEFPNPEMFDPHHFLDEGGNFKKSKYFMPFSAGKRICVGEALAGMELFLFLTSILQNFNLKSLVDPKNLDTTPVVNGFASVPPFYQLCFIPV

[9] = target: Transient receptor potential cation channel subfamily V member 1 (Homo sapiens) (UniProt Q8NER1); experiment: Inhibition of TRPV1 expressed in HEK293 assessed as capsaicin activation cells at 3.3 ug/mL by FLIPR assay; assay type: cell-based
Transient receptor potential cation channel subfamily V member 1 (Homo sapiens), sequence (Q8NER1 whole entry): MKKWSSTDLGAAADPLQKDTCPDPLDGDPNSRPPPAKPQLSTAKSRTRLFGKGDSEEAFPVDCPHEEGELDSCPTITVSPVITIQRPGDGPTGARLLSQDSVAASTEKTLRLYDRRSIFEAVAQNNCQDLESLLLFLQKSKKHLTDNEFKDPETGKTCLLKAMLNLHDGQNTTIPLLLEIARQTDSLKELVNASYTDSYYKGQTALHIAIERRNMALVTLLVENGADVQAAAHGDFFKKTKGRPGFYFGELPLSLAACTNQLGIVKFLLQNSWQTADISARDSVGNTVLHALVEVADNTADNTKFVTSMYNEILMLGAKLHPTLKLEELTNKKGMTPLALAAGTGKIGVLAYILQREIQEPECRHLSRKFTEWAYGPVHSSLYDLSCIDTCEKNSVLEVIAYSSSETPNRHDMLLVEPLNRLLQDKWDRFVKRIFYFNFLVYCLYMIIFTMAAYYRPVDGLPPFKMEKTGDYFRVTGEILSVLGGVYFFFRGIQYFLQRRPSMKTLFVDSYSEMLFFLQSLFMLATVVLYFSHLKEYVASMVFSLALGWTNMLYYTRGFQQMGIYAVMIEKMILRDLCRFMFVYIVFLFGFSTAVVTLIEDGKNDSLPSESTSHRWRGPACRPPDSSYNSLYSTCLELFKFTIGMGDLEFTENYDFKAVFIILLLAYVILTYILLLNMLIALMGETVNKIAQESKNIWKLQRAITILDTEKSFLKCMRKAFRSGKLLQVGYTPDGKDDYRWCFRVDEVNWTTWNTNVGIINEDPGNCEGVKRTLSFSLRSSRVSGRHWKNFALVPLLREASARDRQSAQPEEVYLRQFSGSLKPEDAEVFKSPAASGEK

[10] = target: T1, Voltage-dependent T-type calcium channel subunit alpha-1H; experiment: Inhibition of human CaV3.2 expressed in HEK293 cells at -100 mV membrane potential by whole cell path clamp method; assay type: cell-based
[11] = target: T3, Cytochrome P450 2C9; experiment: Inhibition of CYP2C9 preincubated with compound; assay type: ADME; settings: read-out: INH
[12] = system: Rattus norvegicus; experiment: In vivo inhibition of TRPV1 activation in SNL rat at 30 mg/kg, po; assay type: functional, organism-based; set-up: dose 30 mg/kg
[13] = system: Rattus norvegicus; experiment: Plasma concentration in SNL rat at 10 mg/kg, po; assay type: ADME, organism-based; set-up: dose 10 mg/kg, route oral; settings: in vivo
[14] = as §1; assay type: ADME, cell-free; settings: read-out: PPB (converted)
[15] = system: Rattus norvegicus; experiment: In vivo inhibition of TRPV1 activation in SNL rat at 100 mg/kg, po; assay type: functional, organism-based; set-up: dose 100 mg/kg
[16] = system: Rattus norvegicus; experiment: In vivo inhibition of TRPV1 activation in SNL rat at 50 mg/kg, po; assay type: functional, organism-based; set-up: dose 50 mg/kg
[17] = system: Rattus norvegicus; experiment: In vivo inhibition of TRPV1 activation in SNL rat at 10 mg/kg, po; assay type: functional, organism-based; set-up: dose 10 mg/kg
[18] = system: Rattus norvegicus; experiment: Plasma concentration in SNL rat at 100 mg/kg, po; assay type: ADME, organism-based; set-up: dose 100 mg/kg, route oral; settings: in vivo
[19] = AUC in po dosed rat; assay type: ADME, organism-based; settings: plasma
[20] = system: Rattus norvegicus; experiment: In vivo inhibition of TRPV1 activation in SNL rat at 30 and 60 mg/kg, po; assay type: functional, organism-based; set-up: dose 60 mg/kg

Compound	pIC50 [3]	inhibition [9] [%]	pIC50 [10]	fraction unbound [14]	other results
N#Cc1cccc(NC(=O)N2CCC3(CC2)C(=O)N(c2cccc(Cl)c2)C3c2ccccn2)c1 (stereo in doubt; 43a)	7.24				fraction unbound [1]: 0.013; PPB [2]: 99.2%
CC(C)N1CC2(CCN(C(=O)Nc3cc(F)cc(F)c3)CC2)C1c1ccc(Cl)cc1 (centres undefined)	6.86	19.1	6.48		Papp [4]: > 7.34 ×10⁻⁶ cm/s; INH [5]: 3.6 µM; pIC50 [6]: < 4.52; INH [7]: 0.9 µM; pIC50 [8]: < 4.52; pIC50 [11]: < 4.52
O=C(Nc1cccc(C(F)(F)F)c1)N1CCC2(CC1)C(=O)N(c1ccc(F)c(F)c1)C2c1ccccn1 (stereo in doubt; 41a)					inhibition [12]: inactive
O=C(Nc1cccc(C(F)(F)F)c1)N1CCC2(CC1)C(=O)N(c1ccc(F)c(F)c1)C2c1ccccn1 (stereo in doubt; 411b)	6.75		6.55	0.005	concentration [13]: 2.1 µM
CN1CC2(CCN(C(=O)Nc3cc(F)cc(F)c3)CC2)C1c1ccc(F)cc1 (racemic)	6.39	21.8		0.05	
O=C(Nc1ccc(F)c(F)c1)N1CCC2(CC1)C(=O)N(c1cccc(Cl)c1)C2c1ccccn1 (stereo in doubt; 42b)	6.19				PPB [2]: 99.9%
N#Cc1cccc(NC(=O)N2CCC3(CC2)C(=O)N(c2cccc(Cl)c2)C3c2ccccn2)c1 (stereo in doubt; 43b) [listing 1 of 2 here]	6.07			0.012	
O=C(Nc1cc(F)cc(F)c1)N1CCC2(CC1)C(=O)N(c1ccc(F)c(Cl)c1)C2c1ccccn1 (stereo in doubt; 39a) [listing 1 of 2 here]					inhibition [15]: inactive
O=C(Nc1cc(F)cc(F)c1)N1CCC2(CC1)C(=O)N(c1ccc(F)c(Cl)c1)C2c1ccccn1 (stereo in doubt; 39b)					inhibition [16]: inactive; inhibition [17]: inactive
CC(C)N1CC2(CCN(C(=O)Nc3cc(F)cc(F)c3)CC2)C1c1ccc(F)cc1 (racemic)	6.76	46.5	6.00		
O=C1N(c2ccc(F)c(Cl)c2)C(c2ccccn2)C12CCN(c1nc3cc(F)c(Cl)cc3[nH]1)CC2 (centres undefined)	7.22	8.6	7.08	0.002	
CC(C)N1CC2(CCN(C(=O)Nc3ccc(F)c(F)c3)CC2)C1c1ccc(Cl)cc1 (centres undefined)	6.76	64	6.47		Papp [4]: 18.7 ×10⁻⁶ cm/s; INH [5]: 8.1 µM; pIC50 [6]: < 4.52; INH [7]: 0.9 µM; pIC50 [8]: < 4.52; pIC50 [11]: < 4.52
N#Cc1cccc(NC(=O)N2CCC3(CC2)C(=O)N(c2cccc(Cl)c2)C3c2ccccn2)c1 (stereo in doubt; 43b) [listing 2 of 2 here]		25			inhibition [12]: inactive
O=C(Nc1cc(F)cc(F)c1)N1CCC2(CC1)C(=O)N(c1cccc(Cl)c1)C2c1ccccn1 (stereo in doubt; 44b) [listing 1 of 2 here]	6.70				PPB [2]: 99.5%
O=C(Nc1cc(F)cc(F)c1)N1CCC2(CC1)C(=O)N(c1ccc(F)c(Cl)c1)C2c1ccccn1 (stereo in doubt; 39a) [listing 2 of 2 here]	8.40		7.38	0.004	fraction unbound [1]: 0.001; concentration [18]: 3.4 µM
O=C1N(c2ccc(F)c(Cl)c2)C(c2ccccn2)C12CCN(c1nc3cc(F)c(C(F)(F)F)cc3[nH]1)CC2 (stereo in doubt; 52b) [listing 1 of 2 here]		59.8			inhibition [17]: inactive
C[C@H](NC(=O)N1CCC2(CC1)C(=O)N(c1cccc(F)c1)C2c1ccc(Cl)cc1)c1ccc(F)cc1 (some centres undefined)		2.4		0.001	

Compound	pIC50 [3]	inhibition [9] [%]	pIC50 [10]	fraction unbound [14]	other results
CC[C@H](C)[C@H](NC(=O)N1CCC2(CC1)CN(C(C)C)C2c1ccc(Cl)cc1)C(=O)OC (stereo in doubt; 2)	6.98		6.91		Papp [4]: 13.4 ×10⁻⁶ cm/s; INH [5]: 8.1 µM; pIC50 [6]: < 4.52; INH [7]: 0.9 µM; pIC50 [8]: < 4.52; pIC50 [11]: < 4.52
O=C(Nc1ccc(F)c(F)c1)N1CCC2(CC1)C(=O)N(c1cccc(Cl)c1)C2c1ccccn1 (stereo in doubt; 42a) [listing 1 of 2 here]					fraction unbound [1]: 0.001; PPB [2]: 98.8%
O=C1N(c2ccc(F)c(Cl)c2)C(c2ccccn2)C12CCN(c1nc3ccc(Cl)cc3[nH]1)CC2 (centres undefined)	7.11	86.2	7.15		AUC [19]: 41.2 µM·h
O=C1N(c2ccc(F)c(Cl)c2)C(c2ccccn2)C12CCN(c1nc3cc(F)c(C(F)(F)F)cc3[nH]1)CC2 (stereo in doubt; 52a) [listing 1 of 2 here]	7.54				concentration [18]: 3.4 µM; AUC [19]: 0.814 µM·h
O=C(Nc1cc(F)cc(F)c1)N1CCC2(CC1)CN(c1ccc(F)c(Cl)c1)C2c1ccccn1 (stereo in doubt; 38b)	6.54			0.001	
O=C(Nc1cc(F)cc(F)c1)N1CCC2(CC1)C(=O)N(c1cccc(Cl)c1)C2c1ccccn1 (stereo in doubt; 44a)	7.74		5.46		fraction unbound [1]: 0.003; PPB [2]: 98.9%
O=C(Nc1ccc(F)c(F)c1)N1CCC2(CC1)C(=O)N(c1ccc(F)c(Cl)c1)C2c1ccccn1 (stereo in doubt; 40a)	7.39		4.75	0.004	
O=C(Nc1ccc(F)c(F)c1)N1CCC2(CC1)C(=O)N(c1cccc(Cl)c1)C2c1ccccn1 (stereo in doubt; 42a) [listing 2 of 2 here]		82.7			inhibition [12]: inactive
CN1C(=O)C2(CCN(C(=O)Nc3cc(F)cc(F)c3)CC2)C1c1ccc(Cl)cc1 (racemic)	6.04	20.7		0.034	
O=C(Nc1cc(F)cc(F)c1)N1CCC2(CC1)CN(C1CC1)C2c1ccc(Cl)cc1 (racemic)	6.40			0.002	
O=C1N(c2ccc(F)c(Cl)c2)C(c2ccccn2)C12CCN(c1nc3cc(F)c(C(F)(F)F)cc3[nH]1)CC2 (stereo in doubt; 52a) [listing 2 of 2 here]		92			inhibition [17]: inactive
O=C(Nc1cc(F)cc(F)c1)N1CCC2(CC1)C(=O)N(c1cccc(Cl)c1)C2c1ccccn1 (stereo in doubt; 44b) [listing 2 of 2 here]		36			inhibition [20]: inactive; inhibition [12]: inactive
O=C(Nc1ccc(F)c(F)c1)N1CCC2(CC1)C(=O)N(c1cccc(Cl)c1)C2c1cccc[n+]1[O-] (stereo in doubt; form 1)	6.16			0.066	
O=C(Nc1cc(F)cc(F)c1)N1CCC2(CC1)CN(c1ccc(F)c(Cl)c1)C2c1ccccn1 (stereo in doubt; 38a)	7.22		7.39		PPB [2]: 99.9%
O=C1N(c2cccc(Cl)c2)C(c2ccccn2)C12CCN(c1nc3cc(F)c(C(F)(F)F)cc3[nH]1)CC2 (centres undefined)	7.36	37.9	7.20		
O=C1N(c2ccc(F)c(Cl)c2)C(c2ccccn2)C12CCN(c1nc3cc(F)c(C(F)(F)F)cc3[nH]1)CC2 (stereo in doubt; 52b) [listing 2 of 2 here]	7.51		6.97		
